Experiments:
[1] = biological target: T1, Neuronal acetylcholine receptor; alpha4/beta2 (Homo sapiens, UniProt P17787+P43681); experiment: Agonist activity at human alpha4beta2 nAChR expressed in human SH-EP1 cells assessed as induction of intracellular Ca2+ influx by FLIPR assay relative to nicotine; type: cell-based
[2] = biological target: T1, Neuronal acetylcholine receptor; alpha4/beta2; experiment: Displacement of [3H]nicotine from human alpha4beta2 nAChR expressed in human SH-EP1 cell membranes after 2 hrs by liquid scintillation counting analysis
[3] = biological target: T1, Neuronal acetylcholine receptor; alpha4/beta2; experiment: Agonist activity at human alpha4beta2 nAChR expressed in human SH-EP1 cells assessed as induction of electrophysiological response at 1 uM by patch clamp method relative to acetylcholine; type: cell-based
[4] = biological target: T1, Neuronal acetylcholine receptor; alpha4/beta2; experiment: Agonist activity at human alpha4beta2 nAChR expressed in human SH-EP1 cells assessed as induction of electrophysiological response at 0.1 uM by patch clamp method relative to acetylcholine; type: cell-based
[5] = biological target: T1, Neuronal acetylcholine receptor; alpha4/beta2; experiment: Agonist activity at human alpha4beta2 nAChR expressed in human SH-EP1 cells assessed as induction of electrophysiological response at 10 uM by patch clamp method relative to acetylcholine; type: cell-based
[6] = biological target: T1, Neuronal acetylcholine receptor; alpha4/beta2; experiment: Agonist activity at human alpha4beta2 nAChR expressed in human SH-EP1 cells assessed as induction of intracellular Ca2+ influx by FLIPR assay; type: cell-based

T1 sequence (P17787 whole entry): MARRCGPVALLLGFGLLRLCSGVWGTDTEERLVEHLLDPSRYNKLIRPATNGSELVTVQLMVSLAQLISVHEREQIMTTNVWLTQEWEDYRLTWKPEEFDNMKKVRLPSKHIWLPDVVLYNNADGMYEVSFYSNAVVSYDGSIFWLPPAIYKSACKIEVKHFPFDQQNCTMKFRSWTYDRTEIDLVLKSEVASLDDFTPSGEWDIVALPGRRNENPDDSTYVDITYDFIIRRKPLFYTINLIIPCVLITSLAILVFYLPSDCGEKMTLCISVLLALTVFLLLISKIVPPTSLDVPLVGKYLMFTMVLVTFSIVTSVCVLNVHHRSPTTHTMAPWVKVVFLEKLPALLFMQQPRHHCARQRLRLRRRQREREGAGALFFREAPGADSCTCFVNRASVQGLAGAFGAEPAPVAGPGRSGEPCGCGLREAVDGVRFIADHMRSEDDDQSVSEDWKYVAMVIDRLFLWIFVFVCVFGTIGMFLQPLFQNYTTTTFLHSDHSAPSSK
T1 sequence (P43681 whole entry): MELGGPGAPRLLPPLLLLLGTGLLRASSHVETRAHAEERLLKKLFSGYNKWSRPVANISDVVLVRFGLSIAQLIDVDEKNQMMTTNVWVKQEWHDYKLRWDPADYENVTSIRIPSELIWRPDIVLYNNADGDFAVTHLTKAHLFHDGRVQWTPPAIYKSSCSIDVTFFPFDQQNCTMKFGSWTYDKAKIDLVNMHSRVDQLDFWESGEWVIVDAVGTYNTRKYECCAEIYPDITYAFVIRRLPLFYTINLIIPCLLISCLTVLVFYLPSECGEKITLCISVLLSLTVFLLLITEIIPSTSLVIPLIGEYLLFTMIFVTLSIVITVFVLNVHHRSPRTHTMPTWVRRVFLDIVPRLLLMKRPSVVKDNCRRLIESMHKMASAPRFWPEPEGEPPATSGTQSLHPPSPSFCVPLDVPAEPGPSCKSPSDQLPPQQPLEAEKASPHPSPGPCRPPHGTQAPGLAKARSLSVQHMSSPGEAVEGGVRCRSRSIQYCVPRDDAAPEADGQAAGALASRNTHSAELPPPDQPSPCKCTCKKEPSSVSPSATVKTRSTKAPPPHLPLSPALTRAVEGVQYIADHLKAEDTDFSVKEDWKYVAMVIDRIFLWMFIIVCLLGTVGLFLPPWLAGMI

Compound: c1ccc(C(=C2CN3CCC2CC3)c2ccccc2)cc1
- Emax [1]: 6%
- Ki [2]: 90 nM
- Activity [3]: 2%
- Activity [4]: 0.6%
- Activity [5]: 2%

Compound: c1ccc(C(c2ccccc2)[N+]23CCN(CC2)CC3)cc1
- Emax [1]: < 5%
- Ki [2]: > 10000 nM
- Activity [3]: 3%
- Activity [4]: 1%
- Activity [5]: 1%

Compound: C(=C1/CN2CCC1CC2)/c1cccnc1
- Emax [1]: 18%
- Ki [2]: 6 nM
- Activity [3]: 11%
- EC50 [6]: > 10000 nM
- Activity [4]: 4%
- Activity [5]: 24%

Compound: C(CN1CCCCC1)=C(c1ccccc1)c1ccccc1
- Emax [1]: 9%
- Ki [2]: 160 nM
- Activity [3]: 2%
- Activity [4]: 0.8%
- Activity [5]: 1%

Compound: N#C/C(=C1\CN2CCC1CC2)c1ccccc1
- Emax [1]: < 5%
- Ki [2]: 1100 nM
- Activity [3]: 2%
- Activity [4]: 3%
- Activity [5]: 2%

Compound: C(=C1/CN2CCC1CC2)/c1ccccc1
- Emax [1]: 11%
- Ki [2]: 1600 nM
- Activity [3]: 3%
- EC50 [6]: > 10000 nM
- Activity [4]: 2%
- Activity [5]: 2%

Compound: c1ccc(C[N+]23CCC(CC2)C(=C(c2ccccc2)c2ccccc2)C3)cc1
- Emax [1]: < 5%
- Ki [2]: 7000 nM
- Activity [3]: 2%
- Activity [4]: 2%
- Activity [5]: 1%

From ChEMBL document CHEMBL2434918, “QM-polarized ligand docking accurately predicts the trend in binding affinity of a series of arylmethylene quinuclidine-like derivatives at the α4β2 and α3β4 nicotinic acetylcholine receptors (nAChRs)” (Bioorg Med Chem Lett, 2013)
